The values below are quoted from earlier work in patent US20190374622A1, “COMPOSITION AND METHOD FOR CO-ADMINISTRATION WITH A GROWTH PROMOTANT” (OmniGen Research, LLC, priority 2014, published 2019).

Each structure is given as a SMILES string. Where a name gives a salt, the structure may show the parent alone. Read-outs that look alike come from different tables or passages of the source.

The conditions of data set [1]: cattle, cited from earlier work.
The conditions of data set [2]: finishing swine; cited from earlier work.
For data set [3] the following is noted: cited from earlier work; for increase in average daily weight gain: last 2 weeks.
For data set [4] the following is noted: cited from earlier work.
The mark [5] stands for this setting: 300 mg per head per day, vs cattle that did not receive it.

Take `CC(CCc1ccc(O)cc1)NCC(O)c1ccc(O)cc1` (racemic) [Ractopamine hydrochloride, 4-[3-[[2-hydroxy-2-(4-hydroxyphenyl)ethyl]amino]butyl]phenol]: in data set [1] (setting [5]), the “increase in hot carcass weight” value is on record as 20 pounds and the “increase in live weight” value was 22 pounds. Moreover, in data set [1], the “carcass leanness and yield grade” value is “improves”; the “carcass quality, as measured by marbling score and quality grade” value was “no effect”. In data set [2], the better feed efficiency is given as 10%, the fat-free lean gain result is on record as “improve”, the “increase in average daily gain” value is reported as 10% and the “increase in carcass weights” value was 5 pounds. In addition, in data set [2], the meat quality result is “not affecting”. In data set [3] (hens), the “increase in average daily weight gain” value is 19%. The “increase in average daily weight gain” value in data set [3] (toms) is reported as 13%. In data set [3] (turkeys), the “meat quality, including pH, color and tenderness” value is “no effect”.

As to `CC(C)NC1CCn2c(=O)[nH]c3cccc(c32)C1O` (stereo not drawn) [Zilpaterol hydrochloride, 4,5,6,7-tetrahydro-7-hydroxy-6-(isopropylamino)imidazo[4,5,1-jk][1]benzazepin-2(1H)-one], in data set [4] (cattle, administered as Zilmax, one study (Intervet/Schering Plough 2010)), the “improvement of feed efficiency” value is recorded as 3%. For the same molecule, in data set [4], the “number of Yield Grade 4 and 5 cattle” value is reported as “cut”; the “percentage of Yield Grade 1 cattle” value is on record as “increase”.
